Experiments:
[1] = target: Tyrosine-protein kinase BTK (Homo sapiens) (UniProt Q06187); experiment: Inhibition of human recombinant BTK assessed as residual activity at 10 uM after 1 hr by qPCR analysis relative to control
[2] = target: Serine/threonine-protein kinase PLK4 (Homo sapiens) (UniProt O00444); experiment: Inhibition of human recombinant PLK4 assessed as residual activity at 10 uM after 1 hr by qPCR analysis relative to control
[3] = target: Macrophage colony-stimulating factor 1 receptor (Homo sapiens) (UniProt P07333); experiment: Inhibition of human recombinant CSF1R assessed as residual activity at 10 uM after 1 hr by qPCR analysis relative to control
Chain of Macrophage colony-stimulating factor 1 receptor (Homo sapiens) (P07333 whole entry): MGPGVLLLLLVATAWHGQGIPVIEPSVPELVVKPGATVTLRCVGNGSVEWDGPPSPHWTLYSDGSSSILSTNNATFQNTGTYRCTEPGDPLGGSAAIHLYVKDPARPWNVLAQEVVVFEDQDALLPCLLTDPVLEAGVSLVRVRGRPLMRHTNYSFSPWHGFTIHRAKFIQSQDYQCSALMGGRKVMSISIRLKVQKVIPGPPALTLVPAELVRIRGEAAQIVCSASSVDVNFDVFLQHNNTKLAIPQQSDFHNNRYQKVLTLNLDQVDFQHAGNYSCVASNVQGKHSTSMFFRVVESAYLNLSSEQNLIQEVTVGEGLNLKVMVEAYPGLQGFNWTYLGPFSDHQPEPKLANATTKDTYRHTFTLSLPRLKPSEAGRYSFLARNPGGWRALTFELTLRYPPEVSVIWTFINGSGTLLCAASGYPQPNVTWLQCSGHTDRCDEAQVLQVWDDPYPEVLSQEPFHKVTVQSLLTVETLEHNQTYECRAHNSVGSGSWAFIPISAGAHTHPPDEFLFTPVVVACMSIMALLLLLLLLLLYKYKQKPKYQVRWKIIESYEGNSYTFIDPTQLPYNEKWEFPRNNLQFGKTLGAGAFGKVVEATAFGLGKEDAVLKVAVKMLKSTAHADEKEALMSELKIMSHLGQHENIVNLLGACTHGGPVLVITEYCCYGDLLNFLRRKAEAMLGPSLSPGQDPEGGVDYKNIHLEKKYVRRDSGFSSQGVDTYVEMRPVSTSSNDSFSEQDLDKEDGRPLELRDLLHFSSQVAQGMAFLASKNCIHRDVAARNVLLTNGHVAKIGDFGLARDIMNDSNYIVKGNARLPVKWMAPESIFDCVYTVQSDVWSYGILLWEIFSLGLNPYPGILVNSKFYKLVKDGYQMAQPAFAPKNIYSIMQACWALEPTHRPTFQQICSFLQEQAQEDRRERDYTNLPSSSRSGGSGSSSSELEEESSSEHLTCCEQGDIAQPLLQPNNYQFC

[4] = target: Cyclin-dependent kinase 3 (Homo sapiens) (UniProt Q00526); experiment: Inhibition of human recombinant CDK3 assessed as residual activity at 10 uM after 1 hr by qPCR analysis relative to control
Chain of Cyclin-dependent kinase 3 (Homo sapiens) (Q00526 whole entry, looked up): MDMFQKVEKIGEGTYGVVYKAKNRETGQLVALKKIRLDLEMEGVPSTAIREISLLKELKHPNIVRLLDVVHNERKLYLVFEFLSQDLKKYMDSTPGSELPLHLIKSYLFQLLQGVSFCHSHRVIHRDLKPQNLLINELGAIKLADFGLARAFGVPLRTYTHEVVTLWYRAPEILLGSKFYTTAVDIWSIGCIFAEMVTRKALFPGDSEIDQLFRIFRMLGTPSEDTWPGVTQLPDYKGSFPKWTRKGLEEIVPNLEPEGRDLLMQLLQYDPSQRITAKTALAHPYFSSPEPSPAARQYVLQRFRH

[5] = target: Proto-oncogene tyrosine-protein kinase receptor Ret (Homo sapiens) (UniProt P07949); experiment: Inhibition of human recombinant RET assessed as residual activity at 10 uM after 1 hr by qPCR analysis relative to control
[6] = target: Dual specificity mitogen-activated protein kinase kinase 1 (Homo sapiens) (UniProt Q02750); experiment: Inhibition of human recombinant MEK1 assessed as residual activity at 10 uM after 1 hr by qPCR analysis relative to control
[7] = target: Serine/threonine-protein kinase STK11 (Homo sapiens) (UniProt Q15831); experiment: Inhibition of human recombinant LKB1 assessed as residual activity at 10 uM after 1 hr by qPCR analysis relative to control
Chain of Serine/threonine-protein kinase STK11 (Homo sapiens) (Q15831 whole entry): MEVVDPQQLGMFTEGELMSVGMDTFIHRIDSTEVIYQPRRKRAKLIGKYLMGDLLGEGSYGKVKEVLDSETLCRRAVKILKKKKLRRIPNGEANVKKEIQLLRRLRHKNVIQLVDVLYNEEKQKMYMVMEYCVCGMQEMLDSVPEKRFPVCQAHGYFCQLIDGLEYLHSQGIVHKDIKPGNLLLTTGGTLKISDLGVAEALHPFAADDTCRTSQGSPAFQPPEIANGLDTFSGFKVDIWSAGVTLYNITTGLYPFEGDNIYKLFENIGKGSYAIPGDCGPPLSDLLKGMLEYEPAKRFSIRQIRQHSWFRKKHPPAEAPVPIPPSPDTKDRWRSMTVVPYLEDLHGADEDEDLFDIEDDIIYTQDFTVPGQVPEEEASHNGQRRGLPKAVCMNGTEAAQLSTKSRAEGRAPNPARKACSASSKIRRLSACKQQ

[8] = target: High affinity nerve growth factor receptor (Homo sapiens) (UniProt P04629); experiment: Inhibition of human recombinant TRKA assessed as residual activity at 10 uM after 1 hr by qPCR analysis relative to control
[9] = target: Ribosomal protein S6 kinase alpha-3 (Homo sapiens) (UniProt P51812); experiment: Inhibition of human recombinant N-terminal RSK2 kinase domain 1 assessed as residual activity at 10 uM after 1 hr by qPCR analysis relative to control
[10] = target: MAP kinase-activated protein kinase 2 (Homo sapiens) (UniProt P49137); experiment: Inhibition of human recombinant MAPKAPK2 assessed as residual activity at 10 uM after 1 hr by qPCR analysis relative to control
[11] = target: Glycogen synthase kinase-3 beta (Homo sapiens) (UniProt P49841); experiment: Inhibition of human recombinant GSK3B assessed as residual activity at 10 uM after 1 hr by qPCR analysis relative to control
[12] = target: Serine/threonine-protein kinase DCLK1 (Homo sapiens) (UniProt O15075); experiment: Inhibition of human recombinant DCAMKL1 assessed as residual activity at 10 uM after 1 hr by qPCR analysis relative to control
Chain of Serine/threonine-protein kinase DCLK1 (Homo sapiens) (O15075 whole entry): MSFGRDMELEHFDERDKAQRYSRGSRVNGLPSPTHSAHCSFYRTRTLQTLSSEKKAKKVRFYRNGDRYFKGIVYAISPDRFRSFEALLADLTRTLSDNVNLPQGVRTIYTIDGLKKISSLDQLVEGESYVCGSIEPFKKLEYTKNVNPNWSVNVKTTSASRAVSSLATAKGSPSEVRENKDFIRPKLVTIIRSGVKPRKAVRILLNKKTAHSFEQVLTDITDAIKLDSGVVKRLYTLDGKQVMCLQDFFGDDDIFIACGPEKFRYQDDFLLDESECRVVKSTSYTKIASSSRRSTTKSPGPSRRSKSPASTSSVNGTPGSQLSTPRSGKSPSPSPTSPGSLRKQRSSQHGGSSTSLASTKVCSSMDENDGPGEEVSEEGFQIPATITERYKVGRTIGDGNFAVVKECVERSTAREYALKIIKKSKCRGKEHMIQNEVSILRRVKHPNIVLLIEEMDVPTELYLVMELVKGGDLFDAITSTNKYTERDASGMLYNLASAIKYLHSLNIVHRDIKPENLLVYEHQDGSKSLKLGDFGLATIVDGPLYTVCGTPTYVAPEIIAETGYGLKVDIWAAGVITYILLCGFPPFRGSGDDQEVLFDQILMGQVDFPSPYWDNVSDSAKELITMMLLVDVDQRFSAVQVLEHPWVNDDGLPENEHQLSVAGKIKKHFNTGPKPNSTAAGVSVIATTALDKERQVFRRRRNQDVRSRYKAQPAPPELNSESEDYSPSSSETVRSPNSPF

[13] = target: Aurora kinase A (Homo sapiens) (UniProt O14965); experiment: Inhibition of human recombinant AURKA assessed as residual activity at 10 uM after 1 hr by qPCR analysis relative to control
[14] = target: cAMP-dependent protein kinase catalytic subunit alpha (Homo sapiens) (UniProt P17612); experiment: Inhibition of human recombinant PKACalpha assessed as residual activity at 10 uM after 1 hr by qPCR analysis relative to control
[15] = target: Mitogen-activated protein kinase 8 (Homo sapiens) (UniProt P45983); experiment: Inhibition of human recombinant JNK1 assessed as residual activity at 10 uM after 1 hr by qPCR analysis relative to control
[16] = target: Cyclin-dependent kinase 7 (Homo sapiens) (UniProt P50613); experiment: Inhibition of human recombinant CDK7 assessed as residual activity at 10 uM after 1 hr by qPCR analysis relative to control
[17] = target: Insulin-like growth factor 1 receptor (Homo sapiens) (UniProt P08069); experiment: Inhibition of human recombinant IGF1R assessed as residual activity at 10 uM after 1 hr by qPCR analysis relative to control
[18] = system: Mast/stem cell growth factor receptor Kit (Homo sapiens), P10721 [V559D,T670I]; experiment: Inhibition of human recombinant KIT V559D/T670I double mutant assessed as residual activity at 10 uM after 1 hr by qPCR analysis relative to control
[19] = target: Tyrosine-protein kinase JAK2 (Homo sapiens) (UniProt O60674); experiment: Inhibition of human recombinant JAK2 (JH1 domain-catalytic) assessed as residual activity at 10 uM after 1 hr by qPCR analysis relative to control
Mus musculus = experiment: Toxicity in athymic nude/beige mouse xenografted with human 786-O cells assessed as signs of facial hirsutism at 0.16 mg/kg, ip qd after 24 days; assay type: organism-based, 786-0; settings: in vivo, 576 h
[20] = target: RAC-beta serine/threonine-protein kinase (Homo sapiens) (UniProt P31751); experiment: Inhibition of human recombinant AKT2 assessed as residual activity at 10 uM after 1 hr by qPCR analysis relative to control
[21] = target: Serine/threonine-protein kinase PLK3 (Homo sapiens) (UniProt Q9H4B4); experiment: Inhibition of human recombinant PLK3 assessed as residual activity at 10 uM after 1 hr by qPCR analysis relative to control
[22] = target: Proto-oncogene tyrosine-protein kinase Src (Homo sapiens) (UniProt P12931); experiment: Inhibition of human recombinant SRC assessed as residual activity at 10 uM after 1 hr by qPCR analysis relative to control
Chain of Proto-oncogene tyrosine-protein kinase Src (Homo sapiens) (P12931 2-536 limits assumed): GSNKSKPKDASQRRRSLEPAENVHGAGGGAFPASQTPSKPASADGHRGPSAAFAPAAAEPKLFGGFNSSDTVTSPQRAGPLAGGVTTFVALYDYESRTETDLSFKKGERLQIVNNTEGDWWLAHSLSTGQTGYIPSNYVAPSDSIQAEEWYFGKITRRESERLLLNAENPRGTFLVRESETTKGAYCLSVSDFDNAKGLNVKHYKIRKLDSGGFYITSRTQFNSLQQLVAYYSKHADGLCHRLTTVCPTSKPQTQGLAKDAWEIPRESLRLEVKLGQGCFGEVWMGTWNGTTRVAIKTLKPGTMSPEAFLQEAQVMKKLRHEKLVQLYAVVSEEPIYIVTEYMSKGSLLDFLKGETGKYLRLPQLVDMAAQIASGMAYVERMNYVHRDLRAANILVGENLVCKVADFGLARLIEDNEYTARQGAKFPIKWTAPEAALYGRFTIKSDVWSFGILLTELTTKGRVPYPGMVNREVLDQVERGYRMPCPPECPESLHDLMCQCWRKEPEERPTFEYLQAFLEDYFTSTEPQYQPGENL

[23] = target: SRSF protein kinase 3 (Homo sapiens) (UniProt Q9UPE1); experiment: Inhibition of human recombinant SRPK3 assessed as residual activity at 10 uM after 1 hr by qPCR analysis relative to control
[24] = target: MAP/microtubule affinity-regulating kinase 3 (Homo sapiens) (UniProt P27448); experiment: Inhibition of human recombinant MARK3 assessed as residual activity at 10 uM after 1 hr by qPCR analysis relative to control
[25] = target: Mitogen-activated protein kinase kinase kinase 9 (Homo sapiens) (UniProt P80192); experiment: Inhibition of human recombinant MLK1 assessed as residual activity at 10 uM after 1 hr by qPCR analysis relative to control
[26] = target: MAP kinase-interacting serine/threonine-protein kinase 1 (Homo sapiens) (UniProt Q9BUB5); experiment: Inhibition of human recombinant MKNK1 assessed as residual activity at 10 uM after 1 hr by qPCR analysis relative to control
Chain of MAP kinase-interacting serine/threonine-protein kinase 1 (Homo sapiens) (Q9BUB5 whole entry, looked up): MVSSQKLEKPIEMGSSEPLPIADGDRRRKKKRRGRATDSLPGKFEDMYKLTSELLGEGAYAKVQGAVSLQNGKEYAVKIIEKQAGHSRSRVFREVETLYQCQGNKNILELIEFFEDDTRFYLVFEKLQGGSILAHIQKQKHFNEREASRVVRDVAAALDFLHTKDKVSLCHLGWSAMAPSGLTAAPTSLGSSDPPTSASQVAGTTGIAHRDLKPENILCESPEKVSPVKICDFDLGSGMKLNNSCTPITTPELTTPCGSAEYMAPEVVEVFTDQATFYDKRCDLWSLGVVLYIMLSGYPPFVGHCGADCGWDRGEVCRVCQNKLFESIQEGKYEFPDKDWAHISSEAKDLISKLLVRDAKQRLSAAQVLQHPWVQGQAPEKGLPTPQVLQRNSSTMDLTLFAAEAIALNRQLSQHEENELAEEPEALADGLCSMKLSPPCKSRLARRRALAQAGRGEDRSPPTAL

[27] = target: RAF proto-oncogene serine/threonine-protein kinase (Homo sapiens) (UniProt P04049); experiment: Inhibition of human recombinant RAF1 assessed as residual activity at 10 uM after 1 hr by qPCR analysis relative to control
[28] = target: Protein kinase C epsilon type (Homo sapiens) (UniProt Q02156); experiment: Inhibition of human recombinant PRKCE assessed as residual activity at 10 uM after 1 hr by qPCR analysis relative to control
Chain of Protein kinase C epsilon type (Homo sapiens) (Q02156 whole entry): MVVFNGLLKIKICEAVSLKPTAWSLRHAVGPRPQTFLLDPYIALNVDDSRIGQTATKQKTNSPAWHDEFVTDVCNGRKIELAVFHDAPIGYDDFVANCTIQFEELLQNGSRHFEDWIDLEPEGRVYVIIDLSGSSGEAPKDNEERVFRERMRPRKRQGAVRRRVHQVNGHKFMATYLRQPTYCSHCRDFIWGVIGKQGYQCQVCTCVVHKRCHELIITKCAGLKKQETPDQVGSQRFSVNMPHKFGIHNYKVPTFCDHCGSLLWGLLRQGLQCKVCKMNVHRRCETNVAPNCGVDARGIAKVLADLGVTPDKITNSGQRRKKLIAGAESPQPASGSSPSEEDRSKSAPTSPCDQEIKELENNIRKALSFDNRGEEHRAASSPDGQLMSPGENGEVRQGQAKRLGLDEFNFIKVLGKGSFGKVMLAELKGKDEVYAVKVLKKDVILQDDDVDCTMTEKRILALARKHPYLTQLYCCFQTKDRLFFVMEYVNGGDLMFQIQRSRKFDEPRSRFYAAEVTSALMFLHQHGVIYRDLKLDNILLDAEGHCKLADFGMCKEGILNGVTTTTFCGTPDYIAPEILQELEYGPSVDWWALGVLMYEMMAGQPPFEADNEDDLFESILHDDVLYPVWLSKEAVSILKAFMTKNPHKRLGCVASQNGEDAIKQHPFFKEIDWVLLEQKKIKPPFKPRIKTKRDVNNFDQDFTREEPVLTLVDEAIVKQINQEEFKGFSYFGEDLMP

[29] = target: Serine/threonine-protein kinase PAK 2 (Homo sapiens) (UniProt Q13177); experiment: Inhibition of human recombinant PAK2 assessed as residual activity at 10 uM after 1 hr by qPCR analysis relative to control
Chain of Serine/threonine-protein kinase PAK 2 (Homo sapiens) (Q13177 whole entry): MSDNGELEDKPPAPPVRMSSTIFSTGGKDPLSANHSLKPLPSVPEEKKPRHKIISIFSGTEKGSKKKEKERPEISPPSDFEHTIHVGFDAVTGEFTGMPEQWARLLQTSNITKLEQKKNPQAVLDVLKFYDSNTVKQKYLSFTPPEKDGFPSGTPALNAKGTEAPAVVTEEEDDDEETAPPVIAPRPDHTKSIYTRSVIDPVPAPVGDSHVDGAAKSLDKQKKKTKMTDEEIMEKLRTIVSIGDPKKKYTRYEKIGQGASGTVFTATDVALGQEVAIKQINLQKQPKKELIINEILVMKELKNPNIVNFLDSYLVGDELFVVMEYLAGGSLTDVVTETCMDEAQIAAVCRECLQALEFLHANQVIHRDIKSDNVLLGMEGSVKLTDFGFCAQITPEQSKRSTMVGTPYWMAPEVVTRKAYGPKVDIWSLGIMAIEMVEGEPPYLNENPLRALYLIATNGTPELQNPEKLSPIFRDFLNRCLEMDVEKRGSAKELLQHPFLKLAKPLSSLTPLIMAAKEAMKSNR

Cc1c(Cl)cccc1NC(=O)c1sc2nc3c(cc2c1N)C(=O)CC3
Activity [1]: 100% | Activity [2]: 100% | Activity [3]: 100% | Activity [4]: 100% | Activity [5]: 100% | Activity [6]: 100% | Activity [7]: 76% | Activity [8]: 84% | Activity [9]: 94% | Activity [10]: 100% | Activity [11]: 92% | Activity [12]: 100% | Activity [13]: 98% | Activity [14]: 94% | Activity [15]: 100% | Activity [16]: 99% | Activity [17]: 97% | Activity [18]: 99% | Activity [19]: 94% | Activity (Mus musculus): Toxic | Activity [20]: 72% | Activity [21]: 100% | Activity [22]: 95% | Activity [23]: 100% | Activity [24]: 96% | Activity [25]: 99% | Activity [26]: 100% | Activity [27]: 100% | Activity [28]: 100% | Activity [29]: 95%
